Laboratory results from the NIST ThermoML archive (doi:10.1016/j.jct.2017.06.008).
Values joined by “and” are separate entries in the source; they are usually repeats but may differ in a detail not shown here. Identical values can stand only once. ± gives the expanded uncertainty stated by the source.

How the values were obtained:
[1] = refractive index (Na D-line) (dimensionless); details: 100 kPa, Liquid, Standard Abbe refractometry
[2] = 100 kPa, Liquid; for speed of sound: Frequency=3 MHz, Single path-length method; for mass density: Vibrating tube method
[3] = xn = mol fraction of the nth substance listed; details: 100 kPa, Liquid, x2 = 0; for speed of sound: Frequency=3 MHz, Single path-length method; for mass density: Vibrating tube method
[4] = refractive index (Na D-line) (dimensionless); xn = mol fraction of the nth substance listed; details: 100 kPa, Liquid, Standard Abbe refractometry, x2 = 0

| SMILES | refractive index ([1]; 293.15 K) | refractive index ([1]; 303.15 K) | refractive index ([1]; 313.15 K) | speed of sound ([2]; 293.15 K) | mass density ([2]; 293.15 K) | speed of sound ([2]; 303.15 K) | mass density ([2]; 303.15 K) | speed of sound ([2]; 313.15 K) | mass density ([2]; 313.15 K) | speed of sound ([3]; 293.15 K) | mass density ([3]; 293.15 K) | speed of sound ([3]; 303.15 K) | mass density ([3]; 303.15 K) | speed of sound ([3]; 313.15 K) | mass density ([3]; 313.15 K) | refractive index ([4]; 293.15 K) | refractive index ([4]; 303.15 K) | refractive index ([4]; 313.15 K) |
| --- | --- | --- | --- | --- | --- | --- | --- | --- | --- | --- | --- | --- | --- | --- | --- | --- | --- | --- |
| CC(=O)CC(C)C [4-methylpentan-2-one] | 1.396 ± 0.005 | 1.391 ± 0.005 | 1.387 ± 0.005 | 1212.3 ± 1.6 m/s | 801 ± 3 kg/m3 and 800 ± 3 kg/m3 | 1171.4 ± 1.6 m/s | 792 ± 3 kg/m3 | 1131.4 ± 1.6 m/s | 782 ± 3 kg/m3 |  |  |  |  |  |  |  |  |  |
| C[S+](C)[O-] [dimethyl sulfoxide] | 1.48 ± 0.005 and 1.479 ± 0.005 | 1.475 ± 0.005 | 1.47 ± 0.005 | 1504.7 ± 1.4 m/s | 1100 ± 3 kg/m3 | 1471 ± 1.4 m/s | 1090 ± 3 kg/m3 | 1437.4 ± 1.4 m/s | 1080 ± 3 kg/m3 |  |  |  |  |  |  |  |  |  |
| C1CCCCC1 [cyclohexane] | 1.426 ± 0.005 | 1.421 ± 0.005 | 1.415 ± 0.005 | 1279.5 ± 1.4 m/s | 779 ± 3 kg/m3 and 778 ± 3 kg/m3 | 1230.1 ± 1.4 m/s | 769 ± 3 kg/m3 | 1181.8 ± 1.4 m/s | 760 ± 3 kg/m3 and 759 ± 3 kg/m3 |  |  |  |  |  |  |  |  |  |
| CC#N [acetonitrile] | 1.344 ± 0.005 | 1.339 ± 0.005 | 1.334 ± 0.005 | 1299.7 ± 1.3 m/s | 782 ± 3 kg/m3 | 1258.8 ± 1.3 m/s | 771 ± 3 kg/m3 | 1218.4 ± 1.3 m/s | 760 ± 3 kg/m3 |  |  |  |  |  |  |  |  |  |
| CC(C)=O [acetone] | 1.359 ± 0.005 | 1.353 ± 0.005 | 1.348 ± 0.005 | 1184.3 ± 1.4 m/s | 790 ± 3 kg/m3 | 1139.4 ± 1.4 m/s | 779 ± 3 kg/m3 | 1094.6 ± 1.4 m/s | 767 ± 3 kg/m3 |  |  |  |  |  |  |  |  |  |
| C[S+](C)[O-] [dimethyl sulfoxide] + CC(=O)CC(C)C |  |  |  |  |  |  |  |  |  | 1504.7 ± 1.4 m/s | 1100 ± 3 kg/m3 | 1471 ± 1.4 m/s | 1090 ± 3 kg/m3 | 1437.4 ± 1.4 m/s | 1080 ± 3 kg/m3 | 1.48 ± 0.005 | 1.475 ± 0.005 | 1.47 ± 0.005 |
| C1CCCCC1 [cyclohexane] + CC(=O)CC(C)C |  |  |  |  |  |  |  |  |  | 1279.5 ± 1.4 m/s | 779 ± 3 kg/m3 | 1230.1 ± 1.4 m/s | 769 ± 3 kg/m3 | 1181.8 ± 1.4 m/s | 760 ± 3 kg/m3 | 1.426 ± 0.005 | 1.421 ± 0.005 | 1.415 ± 0.005 |
| CC#N [acetonitrile] + CC(=O)CC(C)C |  |  |  |  |  |  |  |  |  | 1299.7 ± 1.3 m/s | 782 ± 3 kg/m3 | 1258.8 ± 1.3 m/s | 771 ± 3 kg/m3 | 1218.4 ± 1.3 m/s | 760 ± 3 kg/m3 | 1.344 ± 0.005 | 1.339 ± 0.005 | 1.334 ± 0.005 |
| CC(C)=O [acetone] + CC(=O)CC(C)C |  |  |  |  |  |  |  |  |  | 1184.3 ± 1.4 m/s | 790 ± 3 kg/m3 | 1139.4 ± 1.4 m/s | 779 ± 3 kg/m3 | 1094.6 ± 1.4 m/s | 767 ± 3 kg/m3 | 1.359 ± 0.005 | 1.353 ± 0.005 | 1.348 ± 0.005 |
